What was measured:
Experiment in all cases: Ames mutagenicity test (back mutation)
Format in all cases: cell-based
Parameters in all cases: key: -: no back mutation; (+): slight back mutuation; +: increasing back mutation; ++: increasing back mutation
[1] = test system: Salmonella thyphimurium strain TA 97
Text: (§1) Salmonella thyphimurium strains
(§2) without (-) and with (+) S9 - Mix

[2] = test system: Salmonella thyphimurium strain TA 100
Text: as §1, §2

[3] = test system: Salmonella thyphimurium strain TA 98
Text: as §1, §2

## 2,4-diaminotrifluoroethoxybenzene
[1]; with (+) S9-Mix
  Ames test result, TA 97: -
[1]; without (-) S9-Mix
  Ames test result, TA 97: -
[2]; with (+) S9-Mix
  Ames test result, TA 100: (+)
[2]; without (-) S9-Mix
  Ames test result, TA 100: -
[3]; with (+) S9-Mix
  Ames test result, TA 98: ++
[3]; without (-) S9-Mix
  Ames test result, TA 98: -

## Cc1cc(OC(F)(F)C(F)F)c(N)cc1N [2,4-diamino-5-tetrafluoroethoxy-toluene, 2,4-diamino-5-tetrafluoroethoxytoluene]
[1]; with (+) S9-Mix
  Ames test result, TA 97: -
[1]; without (-) S9-Mix
  Ames test result, TA 97: -
[2]; with (+) S9-Mix
  Ames test result, TA 100: -
[2]; without (-) S9-Mix
  Ames test result, TA 100: -
[3]; with (+) S9-Mix
  Ames test result, TA 98: -
[3]; without (-) S9-Mix
  Ames test result, TA 98: -

## COc1ccc(N)cc1N [2,4-diaminoanisol]
[1]; with (+) S9-Mix
  Ames test result, TA 97: +
[1]; without (-) S9-Mix
  Ames test result, TA 97: -
[2]; with (+) S9-Mix
  Ames test result, TA 100: (+)
[2]; without (-) S9-Mix
  Ames test result, TA 100: -
[3]; with (+) S9-Mix
  Ames test result, TA 98: ++
[3]; without (-) S9-Mix
  Ames test result, TA 98: -

## CCOc1ccc(N)cc1N [2,4-diaminophenetol]
[1]; with (+) S9-Mix
  Ames test result, TA 97: +
[1]; without (-) S9-Mix
  Ames test result, TA 97: -
[2]; with (+) S9-Mix
  Ames test result, TA 100: -
[2]; without (-) S9-Mix
  Ames test result, TA 100: -
[3]; with (+) S9-Mix
  Ames test result, TA 98: ++
[3]; without (-) S9-Mix
  Ames test result, TA 98: -

## Nc1ccc(OC(F)(F)C(F)F)c(N)c1 [2,4-diaminotetrafluoroethoxybenzene]
[1]; with (+) S9-Mix
  Ames test result, TA 97: (+)
[1]; without (-) S9-Mix
  Ames test result, TA 97: -
[2]; with (+) S9-Mix
  Ames test result, TA 100: -
[2]; without (-) S9-Mix
  Ames test result, TA 100: -
[3]; with (+) S9-Mix
  Ames test result, TA 98: +
[3]; without (-) S9-Mix
  Ames test result, TA 98: -

Source: patent US4845294A, “Diaminotetrafluoroethoxybenzenes” (Wella Aktiengesellschaft, priority 1984, dated 1989)
